Usually ED50 stands for the dose that gives a 50% effect, or the effect in half of the subjects. Broadly, the EC50 is the midpoint of the concentration-response curve.

In experiment [1] the test system is Mus musculus. Briefly: Compound was tested in mouse tail-flick analgesic antagonist assay vs morphine at 30 mg/kg; Inactive. Further details: dose 30 mg/kg. In kind it is functional, organism-based.
The test system of experiment [2] is Mus musculus. Briefly: Compound was tested in mouse tail-flick antinociceptive assay at 30 mg/kg; Inactive. In kind it is functional, organism-based. Further details: dose 30 mg/kg.
Experiment [3] has as its system Mus musculus. Briefly: Compound was tested for its analgesic activity in mouse hotplate assay at 50 mg/kg; Inactive. In kind it is functional, organism-based. Further details: dose 50 mg/kg.
For experiment [4], the species on record is Mus musculus. Briefly: Compound was tested for its analgesic activity in mouse hotplate assay. In kind it is functional.
For experiment [5], the species on record is Mus musculus. In words: Compound was tested in phenylquinone antinociceptive assay. In kind it is functional.
Experiment [6] is filed under the species Mus musculus. Briefly: Compound was evaluated for analgesic response in the mouse vas deferens assay (max response 77.1+/-8.0%). In kind it is functional, organism-based.
The species entered for experiment [7] is Mus musculus. In words: Compound was evaluated for antagonism in the mouse vas deferens assay in the presence of morphine at 10E-6 M; Inactive. In kind it is functional, organism-based.
For experiment [8], the species on record is Mus musculus. Briefly: Compound was tested in mouse tail-flick antinociceptive assay. In kind it is functional.
Experiment [9] is filed under the species Mus musculus. In words: Compound was evaluated for analgesic response in the mouse vas deferens assay in the presence of naltrexone. (max response 43.4+/-8.1%). In kind it is functional, organism-based.
The species entered for experiment [10] is Mus musculus. In words: Compound was evaluated for analgesic response in the mouse vas deferens assay in the presence of naltrexone. (max response […]). In kind it is functional, organism-based.
The species named for experiment [11] is Mus musculus. In words: Compound was tested in mouse tail-flick antinociceptive assay. In kind it is functional.
The species entered for experiment [12] is Mus musculus. In words: The compound was evaluated for analgesic response in the mouse vas deferens assay (max response 80.6+/-4.0%). In kind it is functional, organism-based.
Experiment [13] is filed under the species Mus musculus. In words: Compound was tested in phenylquinone antinociceptive assay. In kind it is functional.
Experiment [14] has as its system Mus musculus. In words: Compound was tested for its analgesic activity in mouse hotplate assay at 20 mg/kg; Inactive. In kind it is functional, organism-based. Further details: dose 20 mg/kg.
Experiment [15] is filed under the species Mus musculus. In words: Compound was tested in mouse tail-flick analgesic antagonist assay vs morphine. In kind it is functional.
Experiment [16] relates to Mus musculus. Briefly: Compound was tested in mouse tail-flick antinociceptive assay at 10 mg/kg; Inactive. In kind it is functional, organism-based. Further details: dose 10 mg/kg.
The subject of experiment [17] is Mus musculus. In words: Compound was tested in mouse tail-flick analgesic antagonist assay vs morphine at 30 mg/kg. In kind it is functional.
The species named for experiment [18] is Mus musculus. Briefly: Compound was evaluated for antagonism in the mouse vas deferens assay at 10E-6 M; Inactive. In kind it is functional, organism-based.
Experiment [19] is filed under the species Mus musculus. Briefly: Compound was evaluated for analgesic response in the mouse vas deferens assay at 10E-5 M; Inactive. In kind it is functional, organism-based.

Active and inactive are the calls of the source. The rule behind the calls is not given here.

On to `CCOC(=O)CC[C@H]1C2Cc3ccc(OC)c4c3[C@]1(CCN2C)CO4`, for which, in the experiment on Mus musculus [1], the AD50 result is “inactive”. For the same compound, the ED50 result in the experiment on Mus musculus [2] and in the experiment on Mus musculus [3] was “inactive” each time.

Take `CCC[C@H]1C2Cc3ccc(O)c4c3[C@]1(CCN2C)CO4`: the AD50 entry in the experiment with Mus musculus [1] is “inactive”. Further, the 50% effective dose (ED50) in the experiment filed under Mus musculus [4] was 1.8 mg/kg; in the experiment listed under Mus musculus [5], 0.1 mg/kg; in the experiment filed under Mus musculus [8] it was 0.4 mg/kg. Besides, the 50% effective concentration (EC50) in the experiment listed under Mus musculus [6] worked out at 350 nM; in the experiment listed under Mus musculus [9], 3320 nM. The ED50 entry in the experiment filed under Mus musculus [7] is “inactive”.

Turning to `CCC[C@H]1C2Cc3ccc(OC(C)=O)c4c3[C@]1(CCN2C)CO4`, the AD50 entry with Mus musculus [1] is “inactive”. Further, the EC50 in the experiment listed under Mus musculus [10] was determined as 422 nM; in the experiment listed under Mus musculus [12], 85.2 nM. Also, the figures for the median effective dose (ED50) in the experiment listed under Mus musculus [11] and in the experiment listed under Mus musculus [13] were 0.7 mg/kg and 0.2 mg/kg, respectively. The ED50 result in the experiment listed under Mus musculus [7] is “inactive”.

Turning to `CCC[C@H]1C2Cc3ccc(O)c4c3[C@]1(CCN2CCc1ccccc1)CO4`, in the experiment on Mus musculus [1], the AD50 result is “inactive”. Moreover, the ED50 in the experiment filed under Mus musculus [4] is 1.7 mg/kg; in the experiment listed under Mus musculus [5] it was 0.2 mg/kg; in the experiment listed under Mus musculus [8], 1.4 mg/kg.

Take `C=CCN1CC[C@]23COc4c(O)ccc(c42)CC1[C@@H]3CCC`: the ED50 entry in the experiment with Mus musculus [14] and in the experiment with Mus musculus [2] was “inactive” in each case. In the experiment listed under Mus musculus [15], the AD50 turned out to be 0.4 mg/kg.

Regarding `COc1ccc2c3c1OC[C@@]31CCN(C)C(C2)[C@@H]1CCCO`, the AD50 entry with Mus musculus [1] is “inactive”. In addition, the ED50 result in the experiment on Mus musculus [14] and in the experiment with Mus musculus [16] was “inactive” in each case.

`CCC[C@H]1C2Cc3cccc4c3[C@]1(CCN2C)CO4`: the AD50 entry with Mus musculus [1] was “inactive”. The 50% effective dose (ED50) came out at 2.9 mg/kg in the experiment filed under Mus musculus [5] and 20.7 mg/kg in the experiment listed under Mus musculus [8]. Besides, the ED50 result in the experiment on Mus musculus [14] was “inactive”.

As for `C=CCN1CC[C@]23c4c5ccc(O)c4O[C@H]2C(=O)CC[C@@]3(O)[C@H]1C5.Cl` [NALOXONE HYDROCHLORIDE], in the experiment with Mus musculus [17], the AD50 was 0.035 mg/kg.

As for `COc1ccc2c3c1O[C@H]1[C@@H](O)C=C[C@H]4[C@@H](C2)N(C)CC[C@@]341.COc1ccc2c3c1O[C@H]1[C@@H](O)C=C[C@H]4[C@@H](C2)N(C)CC[C@@]341.O.O=P(O)(O)O.O=P(O)(O)O` [CODEINE PHOSPHATE], in the experiment with Mus musculus [1], the AD50 entry was “inactive”. Further, the 50% effective dose (ED50) in the experiment listed under Mus musculus [4] was 9.3 mg/kg; in the experiment filed under Mus musculus [11], 14.5 mg/kg; in the experiment filed under Mus musculus [13], 1.1 mg/kg.

In the experiment filed under Mus musculus [4], `CN1CC[C@]23c4c5ccc(O)c4O[C@H]2[C@@H](O)C=C[C@H]3[C@H]1C5.CN1CC[C@]23c4c5ccc(O)c4O[C@H]2[C@@H](O)C=C[C@H]3[C@H]1C5.O=S(=O)(O)O` showed a 50% effective dose (ED50) of 1.2 mg/kg.

Take `CCC[C@H]1C2Cc3ccc(OC)c4c3[C@]1(CCN2C)CO4`: the half-maximal effective concentration (EC50) entry in the experiment filed under Mus musculus [18] and in the experiment listed under Mus musculus [19] was “Not Active” in each case. Further, the AD50 entry in the experiment on Mus musculus [1] is “inactive”. For the same compound, the 50% effective dose (ED50) in the experiment filed under Mus musculus [5] was 0.8 mg/kg; in the experiment listed under Mus musculus [8] it was 8.1 mg/kg. In addition, the ED50 entry in the experiment on Mus musculus [14] is “inactive”.

For the origin of these results see ChEMBL document CHEMBL1123233, “Preparation and analgesic activity of (-)-11 alpha-substituted 1,2,3,4,5,6-hexahydro-6 alpha,7-(methyleneoxy)-2,6-methano-3-benzazocines” (J Med Chem, 1986).
